Results published in PubChem BioAssay (NCI).
“And” between values parts separate entries of the source, which are not always exact repeats. Equal entries are not always repeated.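 Each compound was tested at five concentrations against cells in 96-well plates for 48 hours. GI50 = concentration required for 50% inhibition of growth. The concentration for full growth arrest is given as TGI.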

Key:
Experiment in all cases: growth of human tumour cells (NCI), 48 h
OVCAR-3 ovarian = tested on: OVCAR-3 ovarian
OVCAR-4 ovarian = tested on: OVCAR-4 ovarian
IGROV1 ovarian = tested on: IGROV1 ovarian
HOP-92 NSCLC = tested on: HOP-92 NSCLC
MCF7 breast = tested on: MCF7 breast
SK-MEL-2 melanoma = tested on: SK-MEL-2 melanoma
UO-31 renal = tested on: UO-31 renal
HCT-116 colon = tested on: HCT-116 colon
UACC-257 melanoma = tested on: UACC-257 melanoma
OVCAR-8 ovarian = tested on: OVCAR-8 ovarian

Compound | GI50 (OVCAR-3 ovarian) | TGI (OVCAR-3 ovarian) | GI50 (OVCAR-4 ovarian) | TGI (OVCAR-4 ovarian) | GI50 (IGROV1 ovarian) | TGI (IGROV1 ovarian) | GI50 (HOP-92 NSCLC) | TGI (HOP-92 NSCLC) | GI50 (MCF7 breast) | TGI (MCF7 breast) | GI50 (SK-MEL-2 melanoma) | TGI (SK-MEL-2 melanoma) | GI50 (UO-31 renal) | TGI (UO-31 renal) | GI50 (HCT-116 colon) | TGI (HCT-116 colon) | GI50 (UACC-257 melanoma) | TGI (UACC-257 melanoma) | GI50 (OVCAR-8 ovarian) | TGI (OVCAR-8 ovarian)
CCN(C(=O)N1CCN(c2cc3c(cc2F)c(=O)c(C(=O)O)cn3C2CC2)CC1)c1nc(-c2ccc(Cl)cc2)cs1 | 1.22 µM | > 100 µM | 1.48 µM | > 57.1 µM | 0.538 µM | 1.79 µM | 0.825 µM | 4.8 µM | 2.97 µM | > 100 µM | 2.12 µM | 5.39 µM | 0.986 µM | > 20.5 µM | 1.1 µM | > 100 µM | 2.53 µM | 7.3 µM | 1.31 µM | > 100 µM
COc1cccc(-c2nc(-c3ccc(NC(=O)OC(C)C)cc3)[nH]c2-c2ccnc(Br)c2)c1 | 2.83 µM | > 100 µM | 3.09 µM | > 100 µM | 3.54 µM | > 100 µM | 3.19 µM | 8.29 µM | 1.59 µM | 8.15 µM | 2.33 µM | 7.03 µM | 2.51 µM | > 100 µM | 2.68 µM | > 100 µM | 3.15 µM | > 100 µM | 3.12 µM | > 100 µM
COc1cccc(C(=O)NC(c2ccc(C)cc2)c2cc(Cl)c3cccnc3c2O)c1 (stereo not given) | 0.346 µM | 18.6 µM | 0.298 µM | 10.2 µM | 0.5 µM | 12.4 µM | 0.474 µM | 9.33 µM | 0.371 µM | > 30.4 µM | 0.767 µM | 9.16 µM | 0.362 µM | 10.8 µM | 0.495 µM | 14.4 µM | 0.653 µM | 12.7 µM | 0.476 µM | 26.7 µM
COC[C@H]1Cn2cc(-c3nc(Nc4ccnn4C)ncc3C)nc2C(=O)N1Cc1ccc(F)c(F)c1 | 60.6 µM | > 100 µM | 17.8 µM | > 100 µM | 0.315 µM | > 100 µM | 0.21 µM | > 26.4 µM | 9.79 µM | > 100 µM | 0.0964 µM | > 100 µM | 2.66 µM | > 86.6 µM | 0.124 µM | > 100 µM | 0.0352 µM | > 100 µM | 98.2 µM | > 100 µM
CC1(C)OC1COc1c2occc2cc2ccc(=O)oc12 (stereo not given) | – | > 100 µM | – | > 100 µM | – | > 100 µM | – | > 100 µM | – | > 100 µM | – | > 100 µM | – | > 100 µM | – | > 100 µM | – | > 100 µM | – | > 100 µM
Cc1nnc(NC(=O)c2nc(S(=O)(=O)Cc3ccc(F)cc3)ncc2Cl)s1 | 1.94 µM | 3.47 µM | 1.8 µM | 3.8 µM | 4.87 µM | 19.1 µM | 1.66 µM | 3.22 µM | 3.29 µM | 17.6 µM | 3.19 µM | 9.72 µM | 7.15 µM | 20.6 µM | 1.83 µM | 3.67 µM | 2.1 µM | 7.61 µM | 2.72 µM | 7.77 µM
O=C(CCCSc1nc(-c2ccccc2)cc(-c2ccccc2)n1)NO | 1.6 µM | 6.16 µM | 1.67 µM | 14.9 µM | 1.5 µM | 9.13 µM | 1.58 µM | 6.13 µM | 2.1 µM | 14.3 µM | 2.35 µM | 12.6 µM | 0.274 µM | 1.27 µM | 0.657 µM | 11.7 µM | 1.77 µM | 6.71 µM | 0.484 µM | 18.3 µM
CCOC(=S)SCC(=O)O | – | > 100 µM | – | > 100 µM | – | > 100 µM | – | > 100 µM | – | > 100 µM | – | > 100 µM | – | > 100 µM | – | > 100 µM | – | > 100 µM | – | > 100 µM
c1ccc(Sc2ncnc3ccccc23)cc1 | 14.6 µM | 28 µM | 8.05 µM | > 100 µM | 4.5 µM | 34.3 µM | 4.49 µM | 27.5 µM | 17.8 µM | 67.9 µM | 22.6 µM | 63 µM | 5.07 µM | 21.1 µM | 10.9 µM | 23.7 µM | 11.9 µM | 34.7 µM | 19.8 µM | 75.9 µM
CC1(COc2ccc3c(c2)ncn3-c2ccc3cccc(N4CCC(N)CC4)c3n2)COC1 | 2.35 µM and 2.99 µM | 4.73 µM and > 10 µM | 2.89 µM and 3.53 µM | 8.15 µM and > 10 µM | 4.07 µM and 2.57 µM | 14 µM and > 10 µM | 10.3 µM and 3.27 µM | 25.7 µM and > 10 µM | 2.17 µM and 2.2 µM | 6.54 µM and 7.83 µM | 4.96 µM and 3.29 µM | 11.9 µM and 6.85 µM | 1.78 µM and 0.822 µM | 5.12 µM and 7.4 µM | 0.894 µM and 1.03 µM | 5.35 µM and > 10 µM | 2.7 µM | 5.36 µM and 5.55 µM | 2.82 µM and 2.84 µM | 10.7 µM and > 10 µM
N#Cc1c[nH]n2c(N=Nc3ccc(Cl)cc3)c(O)nc12 | 40.3 µM | > 100 µM | 57.3 µM | > 100 µM | 50.5 µM | > 100 µM | 13.1 µM | 52.2 µM | 21 µM | > 100 µM | 52 µM | > 100 µM | 32.3 µM | > 100 µM | 92.8 µM | > 100 µM | 20.1 µM | 57.9 µM | 32 µM | > 100 µM
N#CC(C#N)=C/C=C(\Sc1nc2ccccc2s1)c1ccc(Cl)cc1 | 4.77 µM | 22.9 µM | 16 µM | 47.5 µM | 4.87 µM | 12.5 µM | 13.8 µM | 29.3 µM | 7.65 µM | > 100 µM | 27.8 µM | > 100 µM | 7.85 µM | 29.3 µM | 2.14 µM | 5.78 µM | 12.1 µM | 25.4 µM | 7.53 µM | 25 µM
C[C@]12CCC3c4ccc(O)cc4CCC3C1CC[C@@]2(O)CNC(=O)/C=C/c1ccc(O)c(O)c1 (stereo not given in full) | 2.89 µM | 21.5 µM | 26.4 µM | 81.3 µM | 2.47 µM | 7.26 µM | 12.1 µM | 33.6 µM | 12.4 µM | 45.4 µM | 13.5 µM | 32.2 µM | 3.5 µM | 15.7 µM | 3.34 µM | 11.2 µM | 0.0562 µM | 6.54 µM | 2.65 µM | 17.1 µM
